The structures appear in SMILES notation.

Format in all cases: in vivo
One test has as its system Septoria nodorum (Wheat). As to the kind of experiment: Foliar fungal disease test on plants: Septoria nodorum (Wheat). As to conditions: 100 ppm a.i. foliar spray or root drench (approx. 40 ppm in dry soil), one or two days before inoculation.
Test [1] relates to Thanatephorus cucumeries (Rice). As to the kind of experiment: Foliar fungal disease test on plants: Thanatephorus cucumeries (Rice). As to conditions: 100 ppm a.i. foliar spray or root drench (approx. 40 ppm in dry soil), one or two days before inoculation.
Test [2] deals with Pyricularia oryzae (Rice). As to conditions: 100 ppm a.i. foliar spray or root drench (approx. 40 ppm in dry soil), one or two days before inoculation.
Test [3] has as its system Erysiphe graminis tritici (Wheat). As to the kind of experiment: Foliar fungal disease test on plants: Erysiphe graminis tritici (Wheat). As to conditions: 100 ppm a.i. foliar spray or root drench (approx. 40 ppm in dry soil); plants inoculated 24 hours before treatment.
The subject of test [4] is Venturia inaequalis (Apples). As to the kind of experiment: Foliar fungal disease test on plants: Venturia inaequalis (Apples). As to conditions: 100 ppm a.i. foliar spray or root drench (approx. 40 ppm in dry soil), one or two days before inoculation.
For test [5], the system named is Plasmopara viticola (Vines). As to the kind of experiment: Foliar fungal disease test on plants: Plasmopara viticola (Vines). As to conditions: 100 ppm a.i. foliar spray or root drench (approx. 40 ppm in dry soil), one or two days before inoculation.
In test [6] the test system is Phytophthora infestans (Tomatoes). As to conditions: 100 ppm a.i. foliar spray or root drench (approx. 40 ppm in dry soil), one or two days before inoculation.
Test [7] has as its system Puccinia recondita (Wheat). As to the kind of experiment: Foliar fungal disease test on plants: Puccinia recondita (Wheat). As to conditions: 100 ppm a.i. foliar spray or root drench; plants inoculated with Puccinia recondita 48 hours before treatment.

With `COC=C(C(=O)OC)c1ccccc1COC(=O)N(C)c1ccccc1C(=O)OC` [33 (2)], in the test on Septoria nodorum (Wheat), the “POCO (Percentage of Control) disease level, Septoria nodorum (Wheat)” value was 90 (90 and 94 = 60.1-100% disease present). For the same compound, the “POCO (Percentage of Control) disease level, Thanatephorus cucumeries (Rice)” value in test [1] is 60 (60 = 30.1-60% disease present). Further, the “POCO (Percentage of Control) disease level, Pyricularia oryzae (Rice)” value in test [2] is 30 (30 = 20.1-30% disease present). In addition, in test [3], the “POCO (Percentage of Control) disease level, Erysiphe graminis tritici (Wheat)” value is reported as 0 (0 = 0% disease present). Besides, in test [4], the “POCO (Percentage of Control) disease level, Venturia inaequalis (Apples)” value was 60 (60 = 30.1-60% disease present). Further, in test [5], the “POCO (Percentage of Control) disease level, Plasmopara viticola (Vines)” value is on record as 10 (10 = 5.1-10% disease present). For the same compound, the “POCO (Percentage of Control) disease level, Phytophthora infestans (Tomatoes)” value in test [6] was 90 (90 and 94 = 60.1-100% disease present). Also, the “POCO (Percentage of Control) disease level, Puccinia recondita (Wheat)” value in test [7] was 90+ (90 and 94 = 60.1-100% disease present).
For `COC=C(C(=O)OC)c1ccccc1COC(=O)Nc1ccc(F)c(Cl)c1` [104 (1)], the “POCO (Percentage of Control) disease level, Septoria nodorum (Wheat)” value with Septoria nodorum (Wheat) is 90 (90 and 94 = 60.1-100% disease present). In addition, in test [1], the “POCO (Percentage of Control) disease level, Thanatephorus cucumeries (Rice)” value is 90 (90 and 94 = 60.1-100% disease present). Moreover, in test [2], the “POCO (Percentage of Control) disease level, Pyricularia oryzae (Rice)” value was 90 (90 and 94 = 60.1-100% disease present). The “POCO (Percentage of Control) disease level, Erysiphe graminis tritici (Wheat)” value in test [3] was 90 (90 and 94 = 60.1-100% disease present). In test [4], the “POCO (Percentage of Control) disease level, Venturia inaequalis (Apples)” value was 90 (90 and 94 = 60.1-100% disease present). Besides, the “POCO (Percentage of Control) disease level, Plasmopara viticola (Vines)” value in test [5] is 60 (60 = 30.1-60% disease present). The “POCO (Percentage of Control) disease level, Phytophthora infestans (Tomatoes)” value in test [6] was 90 (90 and 94 = 60.1-100% disease present). In test [7], the “POCO (Percentage of Control) disease level, Puccinia recondita (Wheat)” value was 90+ (90 and 94 = 60.1-100% disease present).
On to `COC=C(C(=O)OC)c1ccccc1COC(=O)N(C)c1ccc(F)c(Cl)c1` [104 (2)], for which the “POCO (Percentage of Control) disease level, Septoria nodorum (Wheat)” value in the test with Septoria nodorum (Wheat) was 0 (0 = 0% disease present). Also, in test [1], the “POCO (Percentage of Control) disease level, Thanatephorus cucumeries (Rice)” value is recorded as 0 (0 = 0% disease present). In addition, the “POCO (Percentage of Control) disease level, Pyricularia oryzae (Rice)” value in test [2] is 0 (0 = 0% disease present). In addition, the “POCO (Percentage of Control) disease level, Erysiphe graminis tritici (Wheat)” value in test [3] was 0 (0 = 0% disease present). Further, the “POCO (Percentage of Control) disease level, Venturia inaequalis (Apples)” value in test [4] is on record as 0 (0 = 0% disease present). Further, in test [5], the “POCO (Percentage of Control) disease level, Plasmopara viticola (Vines)” value is listed as 0 (0 = 0% disease present). The “POCO (Percentage of Control) disease level, Phytophthora infestans (Tomatoes)” value in test [6] was 10 (10 = 5.1-10% disease present). Moreover, the “POCO (Percentage of Control) disease level, Puccinia recondita (Wheat)” value in test [7] is on record as 0+ (0 = 0% disease present).
Take `COC=C(C(=O)OC)c1ccccc1COC(=O)Nc1ccc(F)c([N+](=O)[O-])c1` [105 (1)]: the “POCO (Percentage of Control) disease level, Septoria nodorum (Wheat)” value in the test with Septoria nodorum (Wheat) was 90 (90 and 94 = 60.1-100% disease present). Further, the “POCO (Percentage of Control) disease level, Thanatephorus cucumeries (Rice)” value in test [1] is 60 (60 = 30.1-60% disease present). In addition, in test [2], the “POCO (Percentage of Control) disease level, Pyricularia oryzae (Rice)” value is recorded as 60 (60 = 30.1-60% disease present). Besides, the “POCO (Percentage of Control) disease level, Erysiphe graminis tritici (Wheat)” value in test [3] is 30 (30 = 20.1-30% disease present). Besides, the “POCO (Percentage of Control) disease level, Venturia inaequalis (Apples)” value in test [4] was 20 (20 and 24 = 10.1-20% disease present). Also, the “POCO (Percentage of Control) disease level, Plasmopara viticola (Vines)” value in test [5] is 90 (90 and 94 = 60.1-100% disease present). Also, the “POCO (Percentage of Control) disease level, Phytophthora infestans (Tomatoes)” value in test [6] was 90 (90 and 94 = 60.1-100% disease present). The “POCO (Percentage of Control) disease level, Puccinia recondita (Wheat)” value in test [7] is 90+ (90 and 94 = 60.1-100% disease present).
